From US6083973A, “Methods for inhibiting mucin secretion using RAR α selective antagonists” (Syntex (U.S.A.) Inc., priority 1999, dated 2000)

Key:
[1] = system: RXR receptors; conditions: cited from earlier work
[2] = system: MUC2; assay: MUC2 gene transactivation in NHBE cells, RT-PCR; format: cell-based, human; conditions: for MUC2 gene induction: 1×10^-7 M, Example 1; for MUC2 gene expression, compound alone: Example 3, antagonist 1×10^-6 M or agonist 1×10^-7 M; for Induction of MUC2: even at the highest dose, 1×10^-6 M
Protocol: (§1) Transactivation of mucin genes in normal primary human bronchial epithelial cells (NHBE) was performed as described by Gray et al. Am. J. Respir. Biol., 14:104-112 (1996). Primary human airway epithelial cells were cultured on porous Transwell membranes (Corning/Costar) in defined media in the absence of all-trans retinoic acid (ATRA) for 7 days. After seven days, fresh media±ATRA or selective retinoid, was added to the basal culture compartment to create an air-liquid interface (ALI). ATRA and/or selective retinoids were used at a concentration or 1×10^-7 M. The selective retinoids used were: Compound X (RARα selective agonist), RXR agonist (SRI 11217) and anti-AP1 retinoid (SRI 11302). After seven additional days of culture the media was harvested for analysis of secreted mucin gene product using specific ELISA as previously described (Gray et al). The cell layer was lysed using a guanidinium-based buffer (TRIZOL/Sigma) for RNA extraction and analysis. Amplification of MUC2 and MUC5AC RNA was performed by standard RT-PCR using appropriate selective primer and mimics pairs (Guzman et al., Am. J. Physiol. 271 (Lung Cell Mol Physiol.15): L1023-L1028 (1996) and PCR products were detected in ethedium bromide stained agarose gels.
(§2) Transactivation of mucin genes in NHBE was performed as described above with the exception that media was supplemented with RAR alpha (RARα), beta (RARβ), or gamma (RARγ)-selective retinoids on days 7 through day 14. The RAR alpha (RARα), beta (RARβ), or gamma (RARγ)-selective retinoids were compounds X, Y and CD-437 respectively.
(§3) Transactivation of mucin genes in NHBE was performed as described above. On days 7 through day 14 cells were cultured with 1×10^-6 M RARα antagonist, Compound Z, alone or in combination with 1×10^-7 M ATRA or RARα selective agonist, Compound X. The effects on mucin gene transactivation and expression were determined by RT-PCR and ELISA as described above. RARα selective antagonist, Compound Z, had no effect on MUC2 or MUC5AC gene expression.

[3] = system: MUC5AC; assay: MUC5AC gene transactivation in NHBE cells, RT-PCR; format: cell-based, human; conditions: for MUC5AC gene induction: 1×10^-7 M, Example 1; for MUC5AC gene expression, compound alone: Example 3, antagonist 1×10^-6 M or agonist 1×10^-7 M; for Induction of MUC5AC: even at the highest dose, 1×10^-6 M
Protocol: as §1, §2, §3

[4] = system: primary human bronchial epithelium; assay: Mucin protein secretion from NHBE cells, ELISA; format: cell-based; conditions: for mucin secretion: 1×10^-7 M, FIG. 1(b)
Protocol: as §1
Corresponding mucin protein secretion data are shown in FIG. 1(b) as ELISA data representing results from separate samples run in triplicate. Data presented as mean±sem. The mucin protein secretion data were consistent with gene induction results.
as §3

[5] = system: LPS-induced mucin hypersecretion in rats; assay: Mucous hypersecretion in rat model of LPS-induced lung inflammation; format: in vivo; conditions: for mucous hypersecretion in rats: 10 mg/kg daily starting 72 hours prior to LPS challenge
Protocol: (§4) All-trans retinoic acid (ATRA) was evaluated for its effects on mucous hypersecretion in the rat model of endotoxin/lipopolysacharide (LPS)-induced lung inflammation (Steiger et al. J. Am. Respir. Cell Mol. Biol., 12:307-314 (1995)). Animals were divided into treatment groups of approximately six. Lung inflammation was induced in male Long Evans rats by repeated instillation of LPS (LPS derived from Pseudomonas aeriginos; Sigma Chemical) 400 μg/Kg/dose/day for three days. ATRA was dissolved in DMSO (20 mg/ml) and stored at -20 C. Fresh working stocks were prepared fresh daily by dilution in PBS to a final concentration of 2 mg/ml. Animals treated with ATRA (2 mg/kg ip) were dosed once daily by intraperitoneal injection, starting 24 hours prior to the first LPS challenge. Two control groups were included in the study, treatment with vehicle (DMSO/PBS) followed by LPS and treatment with ATRA alone. Animals were sacrificed 24 hours after the last LPS challenge by exsanguination under deep anesthesia.
The lungs were lavaged with phosphate buffered saline (2×5 ml) to wash out mucous layer. The lavage fluid (BAL) was centrifuged for 10 min at 500×g and the cell-free supernate was frozen and stored -20° C. until analyzed for secreted mucin by Alcian-blue/PAS dot blot assay to determine relative contribution of neutral and acidic mucins. Standard curves were generated using bovine intestinal mucins (Sigma) TYPE 1 (Alc. blue/acidic mucins) and TYPE II (PAS+/neutral mucin). Each sample was assayed in triplicate and data presented as […] total mucin. (FIG. 4b)
The effect of RARα selective antagonists Ia and Ib on mucous hypersecretion in the rat and mouse models of LPS-induced lung inflammation was evaluated according to the procedure of Example 4. Animals were treated with compound (10 mg/kg) or vehicle daily starting 72 hours prior to LPS challenge.

[6] = system: goblet cell hyperplasia in rats; assay: LPS-induced goblet cell hyperplasia, morphometric analysis; format: in vivo, rat; conditions: ATRA 2 mg/kg ip once daily
Protocol: as §4
After lavage the lungs were perfused with 10% neutral buffered formalin by intratracheal instillation at a constant rate (5 ml at 1 ml/min). The left lobe was excised and immersed in fixative for 24 hours prior to processing. Standard methods were used to prepare 5 μm paraffin sections. […]

[7] = system: mucin gene expression in human epithelial cells; assay: Mucin gene expression (MUC2 and MUC5AC) in human epithelial cells; format: cell-based
Protocol: as §1, §3

[8] = system: RAR subtypes (α, β, and γ); conditions: cited from earlier work
[9] = system: NIH-292 cells; assay: LPS-induced mucin gene expression in NIH-292 cells, real time RT-PCR; format: cell-based, human; conditions: added 24 hours prior to 10 μg/ml LPS
Protocol: (§5) An in vitro assay was established to screen retinoid-based compounds for their effects on LPS-induced mucin gene expression using a continuous human lung epithelial cell line, NIH-292. NIH-292 cells were cultured in standard T-75 tissue culture flasks in DMEM/F12 media containing 10% fetal bovine serum (FBS). Upon confluence the media was changed to defined medium Optimem (Sigma) supplemented with 1% FBS 24 hours prior to challenge with 10 μg/ml LPS (P. aeriginos, Sigma Chemical). RAR selective antagonist, Compound Z, was added 24 hours prior to LPS challenge. ATRA and specific retinoids were prepared as DMSO stocks. Cells were harvested 6 or 24 hours after LPS challenge using a guanidinium-basedbuffer (TRIZOL/Sigma) for RNA extraction and analysis. Amplification of β-actin, MUC1, MUC2 and MUC5AC specific RNA was performed by using an automated fluorescent detection method for quantitation of real time RT-PCR (TAQMAN, Applied Biosystems/Perkin Elmer). Standard curves were generated for each of the relevant mucin RNAs using control plasmid. Analysis was performed in triplicate from duplicate samples.

[10] = system: MUC5AC; assay: LPS-stimulated MUC5AC mRNA transcription, dose response; format: cell-based; conditions: Homo sapiens, normalized to glyceraldehyde phosphate 3-dehydrogenase, read-out: inhibition of MUC5AC gene transcription IC50
Protocol: as §5
Cells were stimulated with LPS in the presence or absence of Ia. MUC5AC specific mRNA was measured and is graphed normalized relative to glyceraldehyde phosphate 3-dehydrogenase control.

[11] = system: LPS-induced mucous hypersecretion in mice; assay: Mucous hypersecretion in mouse model of LPS-induced lung inflammation; format: in vivo; conditions: 10 mg/kg daily starting 72 hours prior to LPS challenge
Protocol: as §4, with “Two control groups were included in the study, treatment with vehicle (DMSO/PBS) followed by LPS and treatment with ATRA alone. Animals were sacrificed 24 hours after the last LPS challenge by exsanguination under deep anesthesia.” left out
The lungs were lavaged with phosphate buffered saline (2×5 ml) to wash out mucous layer. The lavage fluid (BAL) was centrifuged for 10 min at 500×g and the cell-free supernate was frozen and stored -20° C. until analyzed for secreted mucin by Alcian-blue/PAS dot blot assay to determine relative contribution of neutral and acidic mucins. […]
The effect of RARα selective antagonists Ia and Ib on mucous hypersecretion in the rat and mouse models of LPS-induced lung inflammation was evaluated according to the procedure of Example 4. […]

[12] = system: MUC2; conditions: G. An, et al.; cited from earlier work
[13] = 1×10^-6 M antagonist with 1×10^-7 M ATRA or Compound X

CC1=C(/C=C/C(C)=C\C=C\C(C)=C\C(=O)O)C(C)(C)CCC1 [9-cis isomer of retinoic acid]
binding to RXR receptors [1]: bind instead to the 9-cis isomer of retinoic acid

CC1=C(/C=C/C(C)=C/C=C/C(C)=C/C(=O)O)C(C)(C)CCC1 [ATRA, All-trans retinoic acid]
MUC2 gene induction [2]: induce both MUC2 and MUC5AC gene induction | MUC2 gene expression, compound alone [2]: potent inducers | MUC5AC gene induction [3]: induce both MUC2 and MUC5AC gene induction | MUC5AC gene expression, compound alone [3]: potent inducers | mucin secretion [4]: increase in mucin secretion | LPS-induced mucin hypersecretion in rats ([5]; ATRA 2 mg/kg ip once daily): enhancement | LPS-induced goblet cell hyperplasia [6]: enhancement | mucin gene expression, specifically MUC2 and MUC5AC ([7]; retinoid agonists): transactivates mucin gene expression | binding to the three RAR subtypes [8]: binds with approximately equal affinity to all the three RAR subtypes | binding to RXR receptors [1]: do not bind to all-trans retinoic acid

O=C(O)c1ccc2cc(-c3ccc(O)c(C45CC6CC(CC(C6)C4)C5)c3)ccc2c1 [CD-437, 6-[3-(1-adamantyl)-4-hydroxyphenyl]-2-naphthalenecarboxylic acid]
Induction of MUC2 ([2]; Example 2): minimal | Induction of MUC5AC ([3]; Example 2): minimal

CCCCCCCOc1cc2c(cc1/C(C)=C/c1ccc(C(=O)O)cc1)C(C)(C)CCS2(=O)=O [Compound Ia]
inhibition of ATRA- or Compound X-induced MUC2 [2, 13]: completely inhibited | MUC2 gene expression, compound alone [2]: no effect | inhibition of ATRA- or Compound X-induced MUC5AC [3, 13]: completely inhibited | MUC5AC gene expression, compound alone [3]: no effect | inhibition of ATRA- or Compound X-induced mucin protein secretion ([4]; 1×10^-6 M antagonist with 1×10^-7 M ATRA or Compound X, FIG. 3b): completely inhibited | LPS induced mucin gene expression [9]: inhibit LPS induced mucin gene expression | IC50 [10]: < 10 nM | mucous hypersecretion in rats [5]: reduced the amount of mucous hypersecretion relative to vehicle | mucous hypersecretion in mice [11]: reduced the amount of mucous hypersecretion relative to vehicle | inhibition of retinoid induced mucin gene expression [7]: inhibited

CCCCCCCOc1cc2c(cc1/C(C)=C/C=C/C(C)=C/C(=O)O)C(C)(C)CCS2(=O)=O [Compound Ib]
mucous hypersecretion in rats [5]: reduced the amount of mucous hypersecretion relative to vehicle | mucous hypersecretion in mice [11]: reduced the amount of mucous hypersecretion relative to vehicle | inhibition of retinoid induced mucin gene expression [7]: inhibited

CC1(C)CCC(C)(C)c2cc(C(=O)Nc3ccc(C(=O)O)cc3)ccc21 [Compound X]
MUC2 gene induction [2]: induce both MUC2 and MUC5AC gene induction | MUC2 gene activation ([2]; 1×10^-9 M, Example 2): most potent inducer | MUC2 gene expression, compound alone [2]: potent inducers | Induction of MUC2 ([2]; Example 2): minimal | MUC5AC gene induction [3]: induce both MUC2 and MUC5AC gene induction | MUC5AC gene activation ([3]; 1×10^-9 M, Example 2): most potent inducer | MUC5AC gene expression, compound alone [3]: potent inducers | Induction of MUC5AC ([3]; Example 2): minimal | mucin secretion [4]: increase in mucin secretion

CC(C)=C(c1ccc(C(=O)O)cc1)c1ccc2c(c1)C(C)(C)CCC2(C)C [SRI 11217, 4-[1-(5,6,7,8-tetrahydro-5,5,8,8,-tetramethyl-2-naphthalenyl)-2-methylpropenyl]-benzoic acid]
MUC2 gene induction [2]: no effect on induction of either gene | MUC5AC gene induction [3]: no effect on induction of either gene

CC1=C(/C=C/C(C)=C/C=C/C(C)=C/CO)C(C)(C)CCC1 [retinol]
expression of the MUC2 gene [12]: down-regulated
